Columns and labels:
Format in all cases: in vivo
[1] = test system: Rhizoctonia solani, pathogen of cucumber damping-off; experiment: Cucumber damping-off seed treatment test (Test Example 1); conditions: seventh day
Text: An acetone solution of compound (1b) and an acetone solution of tolclofos-methyl were mixed so as to prepare mixed liquids containing compound (1b) and tolclofos-methyl in predetermined concentration. These mixed liquids were used for smear treatment of cucumber (Sagamihanjiro) seeds using a rotary seed treatment machine (seed dresser, produced by Hans-Ulrich Hege GmbH) so as to obtain treated seeds. The treated seeds were left untouched overnight and then disseminated on the soil which filled a plastic pot and covered with the soil containing Rhizoctonia solani, pathogen of cucumber damping-off, which had been cultured on a bran medium. They were allowed to grow in a greenhouse while irrigated and the number of non-budding seeds was checked on the seventh day after the dissemination and the incidence of disease was calculated by Equation 3. The control value was calculated by Equation 1 based on the incidence of disease. The incidence of disease was also checked in the case in which the plants had not been treated with the agent in order to calculate the control value. […]
Generally, the control value expected for the case where the given two kinds of active ingredient compounds are mixed and used for the treatment, the so-called control value expectation is calculated from the following Colby's calculating equation. […]

[2] = test system: Rhizoctonia solani, pathogen of brown patch of turfgrass; experiment: Turfgrass brown patch foliage application test (Test Example 3); conditions: 14 days
Experimental: (§1) Control value=100(A−B)/A “Equation 1”
(§2) A: Incidence of disease of plant in untreated area
(§3) B: Incidence of disease of plant in treated area
(§4) Generally, the control value expected for the case where the given two kinds of active ingredient compounds are mixed and used for the treatment, the so-called control value expectation is calculated from the following Colby's calculating equation. E=X+Y−(X×Y)/100 “Equation 2”
(§5) X: Control value (%) when active ingredient compound A is used for treatment in M g per hectare or in M g per 100 kg of seeds
(§6) Y: Control value (%) when active ingredient compound B is used for treatment in N g per hectare or in N g per 100 kg of seeds
(§7) E: Control value (%) expected for the case where active ingredient compound A in M g per hectare or in M g per 100 kg of seeds and active ingredient compound B in N g per hectare or in N g per 100 kg of seeds are mixed and used for treatment (hereinbelow referred to as “control value expectation”) “Synergetic effect”=(Actual control value)×100/(Control value expectation) Incidence of disease=(Number of no budding seeds)×100/(Number of total disseminated seeds) “Equation 3”
A plastic pot was filled with sandy soil. Turfgrass (bentgrass penncross) was disseminated and allowed to grow in a green house for 3 weeks. A wettable powder of compound (1b) and a wettable powder of tolclofos-methyl (Grancer Wettable Powder manufactured by Nihon Green & Garden Corporation) were respectively diluted with water and then tank-mixed so as to prepare tank-mixed liquids containing compound (1b) and tolclofos-methyl in predetermined concentration. […] The diseased area ratio of the pot plants on which the agents had been sprayed was determined as the incidence of disease at the time of checking and the control value was calculated by Equation 1 based on the incidence of disease thus determined. In order to calculate the control value, the incidence of disease was also determined in the case in which the plants had not been treated with the agent. […]

[3] = test system: Sclerotinia homeocarpa, pathogen of dollar spot of turfgrass; experiment: Turfgrass dollar spot foliage application test (Test Example 2); conditions: 14 days
Experimental: as §1, §2, §3, §4, §5, §6, §7
A plastic pot was filled with sandy soil. Turfgrass (bentgrass penncross) was disseminated and allowed to grow in a green house for 3 weeks. A wettable powder of compound (1b) and a wettable powder of tolclofos-methyl (Grancer Wettable Powder manufactured by Nihon Green & Garden Corporation) were respectively diluted with water and then tank-mixed so as to prepare tank-mixed liquids containing compound (1b) and tolclofos-methyl in predetermined concentration. The tank-mixed liquids were subjected to foliage application such that they could be sufficiently adhered to the leaves of the aforementioned turfgrass. Thereafter, the plants were air-dried. After the plants were air-dried, Sclerotinia homeocarpa, pathogen of dollar spot of turfgrass, which had been cultured on a bran medium was sprayed on the plants to be treated from above. Then, the plants were placed in a greenhouse at 19° C. to 23° C. under high humidity for 14 days, and thereafter control effect was checked. The diseased area ratio of the pot plants on which the agents had been sprayed was determined as the incidence of disease at the time of checking and the control value calculated by Equation 1 based on the incidence of disease thus determined. In order to calculate the control value, the incidence of disease was also determined in the case in which the plants had not been treated with the agent.
As a comparison, the respective wettable powders described above were diluted with water in predetermined concentration so as to prepare a compound (1b) liquid and a tolclofos-methyl liquid respectively and they were subjected to similar tests.

[4] = test system: Pythium irregulare, pathogen of cucumber damping-off; experiment: Cucumber damping-off seed treatment test with metalaxyl (Test Example 4); conditions: seventh day
Experimental: as §1, §2, §3, §4, §5, §6, §7
(§8) An acetone solution of compound (1b) and an acetone solution of metalaxyl were mixed so as to prepare mixed liquids containing compound (1b) and metalaxyl in predetermined concentration. These mixed liquids were adhered on the surface of cucumber (Sagamihanjiro) seeds so as to obtain treated seeds. […] They were allowed to grow in a greenhouse while irrigated and the number of non-budding seeds was checked on the seventh day after the dissemination and the incidence of disease was calculated by Equation 3. The control value was calculated by Equation 1 based on the incidence of disease. In order to calculate the control value, the incidence of disease was also determined in the case in which the plants had not been treated with the agent. […]

[5] = test system: Pythium irregulare, pathogen of cucumber damping-off; experiment: Cucumber damping-off seed treatment test with mefenoxam (Test Example 5); conditions: seventh day
Experimental: as §1, §2, §3, §4, §5, §6, §7
as §8, with “mefenoxam” for “metalaxyl”

[6] = tolclofos-methyl 37.5 g/ha alone
[7] = compound (1b) 0.005 g/100 kg-seed alone

## COP(=S)(OC)Oc1c(Cl)cc(C)cc1Cl [Tolclofos-methyl, tolclofos-methyl]
[1]; tolclofos-methyl 10 g/100 kg-seed alone
  Actual control value: 57%
[2]; [6]
  Actual control value: 30%
[3]; [6]
  Actual control value (%): 12.4%
[3]; tolclofos-methyl 150 g/ha alone
  Actual control value (%): 43.7%
[3]; tolclofos-methyl 600 g/ha alone
  Actual control value (%): 59.3%

## COCC(=O)N(c1c(C)cccc1C)C(C)C(=O)OC (stereo not drawn) [Metalaxyl, metalaxyl]
[4]; metalaxyl 0.00125 g/100 kg-seed alone
  Actual control value: 25%
[4]; metalaxyl 0.0025 g/100 kg-seed alone
  Actual control value: 12.5%

## COCC(=O)N(c1c(C)cccc1C)[C@H](C)C(=O)OC [Mefenoxam, mefenoxam]
[5]; mefenoxam 0.00125 g/100 kg-seed alone
  Actual control value: 25%
[5]; mefenoxam 0.005 g/100 kg-seed alone
  Actual control value: 50%

## CNC(=O)C(OC)c1ccccc1COc1cc(C)ccc1C (racemic) [(1b)]
[1]; compound (1b) 1 g/100 kg-seed alone
  Actual control value: 30%
[5]; [7]
  Actual control value: 25%
[2]; compound (1b) 9.4 g/ha alone
  Actual control value: 30%
[2]; compound (1b) 37.5 g/ha alone
  Actual control value: 45%
[4]; [7]
  Actual control value: 25%
[3]; compound (1b) 150 g/ha alone
  Actual control value (%): 67.2%
